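Test compounds were applied to cells in 96-well plates for 48 hours at 5 doses. Abbreviation: GI50, concentration required for 50% inhibition of growth. At the TGI there is no net growth.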
Columns and labels:
Assay in all cases: NCI anticancer screen, dose series, 48 h
[1] = system: HCT-15 colon
[2] = system: HL-60(TB) leukemia
[3] = system: NCI-H226 lung
[4] = system: NCI-H522 lung
[5] = system: OVCAR-3 ovarian
[6] = system: OVCAR-5 ovarian
[7] = system: PC-3 prostate
[8] = system: RPMI-8226 leukemia
[9] = system: SNB-19 CNS
[10] = system: UACC-257 melanoma

COc1ccc(/C(=C/c2cc(OC)c(OC)c(OC)c2)[N+](=O)[O-])cc1
GI50 [1]: 1.63 µM | TGI [1]: 3.54 µM | GI50 [2]: 1.61 µM | TGI [2]: 5.59 µM | GI50 [3]: 2.29 µM | TGI [3]: 5.78 µM | GI50 [4]: 1.95 µM | TGI [4]: 3.62 µM | GI50 [5]: 1.66 µM | TGI [5]: 3.14 µM | GI50 [6]: 2.01 µM | TGI [6]: 4.09 µM | GI50 [7]: 1.95 µM | TGI [7]: 3.88 µM | GI50 [8]: 1.7 µM | TGI [8]: 4.77 µM | GI50 [9]: 1.68 µM | TGI [9]: 3.64 µM | GI50 [10]: 1.67 µM | TGI [10]: 3.48 µM
